Patent EP2043663B1, “TOPICAL TREATMENT OF WARTS” (ITH Immune Therapy Holdings AB, priority 2006, dated 2008)

Legend:
[1] = system: epithelial cells; experiment: Epithelial cytotoxicity cell assay; type: cell-based; conditions: AIM V medium
[2] = system: common wart; experiment: Treatment of warts II: gelled aqueous dithionite solution applied to a wart; type: in vivo, person; conditions: several drops of freshly prepared aqueous solution containing 2.0 % by weight of hydroxypropylmethyl cellulose; back of hand; rinsed after half an hour; wart wetted three hours from application; wooden spatula
Excerpt: Treatment of warts II. Several drops of freshly prepared aqueous solution of sodium dithionite containing 2.0 % by weight of hydroxypropylmethyl cellulose are applied to a common wart on the back of a persons hand. After half an hour the hand is rinsed with water. Three hours from application the wart is wetted.

For `O=S([O-])S(=O)[O-].[Na+].[Na+]` [sodium dithionite], the “effect on the cells (cytotoxicity)” value ([1]; highest concentration) was “substantial cell death”, the “effect on the cells (cytotoxicity)” value ([1]; lowest concentration, 0.001 g/mL) was “did not affect the cells” and the “removability of the wart” value [2] was “easily removed”.
